Reference: ChEMBL document CHEMBL5727642, “Bicyclic proline compounds” (2020)

Test: FLIPR Tetra Assay: IC50 (effective concentration) of compounds on the human and rat TRPA1 channels were determined using a FLIPR Tetra instrument. CHO cells expressing TRPA1 were plated into 384-well plates, incubated overnight at 37° C., and loaded with BD calcium indicator dye for 1 hr at 37° C. followed by 15 minutes. at room temperature. The assay buffer was Hank's Balanced Salt Solution (HBSS) containing 20 mM HEPES (pH readjusted to 7.4) along with 0.02% BSA.Following dye load and plate cool down, compounds were added to the cells using FLIPR Tetra. Plates were then incubated with compounds for 20 minutes at room temperature prior to adding agonist. Following this incubation, ˜EC80 concentration of cinnamaldehyde (75 uM for human TRPA1 and 45 uM for rat TRPA1) was added to active the channels and block of cinnamaldehyde induced calcium influx was measured.

SMILES | IC50 [nM]
O=C(NCc1cc(-c2cnc(C(F)(F)F)nc2)ncc1C1CC1)[C@@H]1C2CC(C2)N1S(=O)(=O)c1ccc(F)cc1 | 16.3
O=C(NCc1cc(-c2cnc(C(F)(F)F)nc2)c(F)cn1)[C@@H]1C2CC(C2)N1S(=O)(=O)c1ccc(F)c(F)c1 | 10.6
O=C(NCc1cc(-c2cnc(C(F)(F)F)nc2)ncc1Cl)[C@@H]1C2CC(C2)N1S(=O)(=O)c1ccc(F)cc1 | 6.08
O=C(NCc1cc(-c2cnc(C(F)(F)F)nc2)cnc1C(F)(F)F)[C@@H]1C2CC(C2)N1S(=O)(=O)c1ccc(F)cc1 | 12.1
